In patent US20240130368A1, “HERBICIDAL COMPOSITION” (Nippon Soda Co., Ltd., priority 2021, published 2024):
Read-outs that look alike come from different tables or passages of the source.

System: Ambrosia artemisiifolia
Test: Test Example 1: seeds on filter paper moistened with chemical solution, herbicidal effect visually evaluated
Assay type: in vivo
Details: visually evaluated 6 days after treatment
Procedure: As the compound (1), 1-methoxy-3-methyl-6-(1,1-dioxido-8-(trifluoromethyl)thiochroman-5-yl)-7-oxa-3,4-diazabicyclo[4.1.0]hept-4-en-2-one (Compound (I-3)) was used.
The compound (I) or compound (II) was prepared into a 5% emulsion using DMF (containing 1.5% Tween) and diluted with water to a prescribed dosage concentration. Commercially available preparations were dissolved in water and adjusted to a prescribed dosage concentration.
Seeds were soaked in 0.6% sodium hypochlorite for a predetermined time for surface sterilization and washed with water for use (seed disinfection). Seeds of Ambrosia artemisiifolia were used for the test.
Filter paper was placed on a cup (diameter: 10 cm, height: 4 cm) with a lid and moistened with 8 ml of chemical solution, and seeds were sown thereon, and after covering with a lid, grown in a constant temperature room.
The herbicidal effects were visually evaluated, 6 days after the treatment, as the herbicidal effect (%), by comparing with a state of an untreated group using a total of 21 scores of withering index from 0 to 20 (0: mortality rate equivalent to that of the untreated group, 20: mortality rate of 100%).
In addition, the expected values of the herbicidal effects were calculated from the herbicidal effects in a case where the compound (I) alone was applied and the herbicidal effects in a case where the compound (II) alone was applied by using the Colby's formula (Colby, S. R., Calculating synergistic and antagonistic responses of herbicide combinations, Weeds, 15, pp. 20-22 (1967)).
M indicates an herbicidal effect (%) in the application of the compound (I) alone, N indicates an herbicidal effect (%) in the application of the compound (II) alone, and E indicates an expected value (%) of the herbicidal effect in the combined application of the compound (T) and the compound (TT). When the actual measured value (%) of the herbicidal effect in the combined application of the compound (I) and the compound (II) is greater than the expected value E, it can be regarded that the combined application of the compound (I) and the compound (II) has a synergistic effect.

[1] = Ambrosia artemisiifolia, 144 h, compound applied alone, amount of active ingredient 3.1 ppm, read-out: Herbicidal effect (%)
[2] = applied alone, amount of active ingredient 0.8 ppm
[3] = Ambrosia artemisiifolia, 144 h, compound applied alone, amount of active ingredient 0.8 ppm, read-out: Herbicidal effect (%)
[4] = Ambrosia artemisiifolia, 144 h, applied alone, amount of active ingredient 50 ppm, read-out: Herbicidal effect (%)
[5] = Ambrosia artemisiifolia, 144 h, read-out: Herbicidal effect (%), applied alone, amount of active ingredient 12.5 ppm
[6] = Ambrosia artemisiifolia, 144 h, applied alone, amount of active ingredient 0.2 ppm, read-out: Herbicidal effect (%)
[7] = compound applied alone, amount of active ingredient 12.5 ppm
[8] = Ambrosia artemisiifolia, 144 h, applied alone, amount of active ingredient 0.8 ppm, read-out: Herbicidal effect (%)
[9] = Ambrosia artemisiifolia, 144 h, compound applied alone, amount of active ingredient 0.2 ppm, read-out: Herbicidal effect (%)
[10] = Ambrosia artemisiifolia, 144 h, applied alone, amount of active ingredient 12.5 ppm, read-out: Herbicidal effect (%)
[11] = Ambrosia artemisiifolia, 144 h, compound applied alone, amount of active ingredient 0.012 ppm
[12] = compound applied alone, amount of active ingredient 0.2 ppm

2,4-D amine
Herbicidal effect (%) (applied alone, amount of active ingredient 0.05 ppm): 20%

Cc1ccccc1CO[C@@H]1C[C@@]2(C(C)C)CC[C@]1(C)O2 (racemic) [Cinmethylin]
pest or weed control at 3.1 ppm [1]: 50%

CCCCC(CC)COC(=O)COc1ccc(Cl)cc1Cl (stereo not drawn) [2,4-D 2-ethylhexyl ester]
Herbicidal effect (%) [2]: 50%

Nc1c([N+](=O)[O-])ccc(Oc2ccccc2)c1Cl [Aclonifen]
pest or weed control at 50 ppm (Ambrosia artemisiifolia, 144 h, compound applied alone, amount of active ingredient 50 ppm, read-out: Herbicidal effect (%)): 20%

CCc1cccc(CC)c1N(COC)C(=O)CCl [Alachlor]
pest or weed control at 0.8 ppm [3]: 20%

CC(C)c1nn(C(=O)NC(C)(C)C)c(=O)n1N [Amicarbazone]
Herbicidal effect (%) (applied alone, amount of active ingredient 50 ppm): 0%

Nc1nc[nH]n1 [Amitrole]
pest or weed control at 3.1 ppm [1]: 20%

COC(=O)NS(=O)(=O)c1ccc(N)cc1 [Asulam]
pest or weed control at 3.1 ppm [1]: 20%

CC(C)N1C(=O)c2ccccc2NS1(=O)=O [Bentazon]
pest or weed control at 200 ppm (Ambrosia artemisiifolia, 144 h, applied alone, amount of active ingredient 200 ppm): 20%

N#Cc1cc(Br)c(O)c(Br)c1 [Bromoxynil]
pest or weed control at 3.1 ppm (Ambrosia artemisiifolia, 144 h, applied alone, amount of active ingredient 3.1 ppm, read-out: Herbicidal effect (%)): 0%

CCOC(=O)C(Cl)Cc1cc(-n2nc(C)n(C(F)F)c2=O)c(F)cc1Cl (stereo not drawn) [Carfentrazone-ethyl]
pest or weed control at 0.8 ppm (Ambrosia artemisiifolia, 144 h, read-out: Herbicidal effect (%), applied alone, amount of active ingredient 0.8 ppm): 50%

Cc1ccc(NC(=O)N(C)C)cc1Cl [Chlorotoluron]
pest or weed control at 50 ppm [4]: 40%

CCSC(C)CC1CC(=O)C(/C(CC)=N/OC/C=C/Cl)=C(O)C1 (stereo not drawn) [Clethodim]
pest or weed control at 12.5 ppm [5]: 0%

CC1(C)CON(Cc2ccccc2Cl)C1=O [Clomazone]
pest or weed control at 0.2 ppm [6]: 10%

Cc1cccc(C2CC2)c1Oc1nnc(Cl)cc1OC(=O)N1CCOCC1 [Cyclopyrimorate]
Herbicidal effect (%) [7]: 40%

COc1c(Cl)ccc(Cl)c1C(=O)O [Dicamba]
pest or weed control at 0.8 ppm [8]: 30%

O=C(Nc1ccc(F)cc1F)c1cccnc1Oc1cccc(C(F)(F)F)c1 [Diflufenican]
pest or weed control at 0.2 ppm [9]: 10%

C/C(=N\NC(=O)Nc1cc(F)cc(F)c1)c1ncccc1C(=O)[O-].[Na+] [Diflufenzopyr-sodium]
Herbicidal effect (%) [7]: 20%

COC[C@H](C)N(C(=O)CCl)c1c(C)csc1C [Dimethenamid-P]
Herbicidal effect (%) (compound applied alone, amount of active ingredient 0.8 ppm): 30%

c1cc[n+]2c(c1)-c1cccc[n+]1CC2 [Diquat]
pest or weed control at 0.2 ppm (Ambrosia artemisiifolia, 144 h, read-out: Herbicidal effect (%), compound applied alone, amount of active ingredient 0.2 ppm): 30%

CCOC(=O)COc1ncccc1Oc1cc(-n2c(=O)cc(C(F)(F)F)n(C)c2=O)c(F)cc1Cl [Epyrifenacil]
Herbicidal effect (%) (compound applied alone, amount of active ingredient 0.0125 ppm): 80%

Cc1ccn2nc(S(=O)(=O)Nc3c(F)cccc3F)nc2n1 [Flumetsulam]
pest or weed control at 12.5 ppm [10]: 40%

C#CCN1C(=O)COc2cc(F)c(N3C(=O)C4=C(CCCC4)C3=O)cc21 [Flumioxazin]
pest or weed control at 0.05 ppm (Ambrosia artemisiifolia, 144 h, applied alone, amount of active ingredient 0.05 ppm, read-out: Herbicidal effect (%)): 80%

NC(=O)c1nc(-c2ccccc2)n(-c2ccc(Cl)c(COCC(F)(F)C(F)(F)F)c2)n1 [Flupoxam]
pest or weed control at 0.012 ppm [11]: 65%

Nc1c(Cl)c(F)nc(OCC(=O)O)c1Cl [Fluroxypyr]
pest or weed control at 0.8 ppm [8]: 40%

COc1cc(OC)nc(NC(=O)NS(=O)(=O)c2cc(NC=O)ccc2C(=O)N(C)C)n1 [Foramsulfuron]
pest or weed control at 0.8 ppm [8]: 65%

CP(=O)(O)CCC(N)C(=O)O (stereo not drawn) [Glufosinate-ammonium]
pest or weed control at 12.5 ppm [5]: 20%

O=C(O)CNCP(=O)(O)O [Glyphosate]
pest or weed control at 12.5 ppm [5]: 20%

COC(=O)c1nc(-c2ccc(Cl)c(OC)c2F)cc(N)c1Cl [Halauxifen-methyl]
Herbicidal effect (%) (compound applied alone, amount of active ingredient 0.012 ppm): 70%

COC(=O)c1c(Cl)nn(C)c1S(=O)(=O)NC(=O)Nc1nc(OC)cc(OC)n1 [Halosulfuron-methyl]
pest or weed control at 0.05 ppm (Ambrosia artemisiifolia, 144 h, read-out: Herbicidal effect (%), compound applied alone, amount of active ingredient 0.05 ppm): 30%

COC(=O)C(C)Oc1ccc(Oc2ncc(C(F)(F)F)cc2Cl)cc1 (stereo not drawn) [Haloxyfop-methyl]
pest or weed control at 12.5 ppm [5]: 10%

CN(C)c1nc(=O)n(C2CCCCC2)c(=O)n1C [Hexazinone]
pest or weed control at 3.1 ppm [1]: 10%

CCC(C)(CC)c1cc(NC(=O)c2c(OC)cccc2OC)on1 [Isoxaben]
pest or weed control at 0.2 ppm [9]: 75%

CS(=O)(=O)c1cc(C(F)(F)F)ccc1C(=O)c1cnoc1C1CC1 [Isoxaflutole]
pest or weed control at 0.0125 ppm (Ambrosia artemisiifolia, 144 h, compound applied alone, amount of active ingredient 0.0125 ppm): 40%

CON(C)C(=O)Nc1ccc(Cl)c(Cl)c1 [Linuron]
pest or weed control at 12.5 ppm (Ambrosia artemisiifolia, 144 h, compound applied alone, amount of active ingredient 12.5 ppm, read-out: Herbicidal effect (%)): 10%

Cc1cc(Cl)ccc1OCC(=O)O [MCPA]
Herbicidal effect (%) (applied alone, amount of active ingredient 0.2 ppm): 30%

CS(=O)(=O)c1ccc(C(=O)C2C(=O)CCCC2=O)c([N+](=O)[O-])c1 [Mesotrione]
pest or weed control at 0.2 ppm [9]: 50%

CCc1cccc(C)c1N(C(=O)CCl)C(C)COC (stereo not drawn) [Metolachlor]
pest or weed control at 0.8 ppm [3]: 10%

CSc1nnc(C(C)(C)C)c(=O)n1N [Metribuzin]
pest or weed control at 50 ppm [4]: 0%

COc1cc(OC)nc(NC(=O)NS(=O)(=O)c2ncccc2C(=O)N(C)C)n1 [Nicosulfuron]
pest or weed control at 0.8 ppm [3]: 60%

CCC(CC)Nc1c([N+](=O)[O-])cc(C)c(C)c1[N+](=O)[O-] [Pendimethalin]
pest or weed control at 0.8 ppm [8]: 20%

Nc1c(Cl)c(Cl)nc(C(=O)O)c1Cl [Picloram]
pest or weed control at 0.8 ppm [8]: 70%

O=C(Nc1ccc(F)cc1)c1cccc(Oc2cccc(C(F)(F)F)c2)n1 [Picolinafen]
Herbicidal effect (%) (applied alone, amount of active ingredient 3.1 ppm): 30%

CCCN(CCC)C(=O)SCc1ccccc1 [Prosulfocarb]
pest or weed control at 0.8 ppm [8]: 20%

FC(F)c1cc(-c2c(Cl)cccc2Oc2ncc(Cl)cn2)on1 [Rimisoxafen]
Herbicidal effect (%) [12]: 25%

CCS(=O)(=O)c1cccnc1S(=O)(=O)NC(=O)Nc1nc(OC)cc(OC)n1 [Rimsulfuron]
pest or weed control at 0.2 ppm [6]: 20%

CC(C)N(C)S(=O)(=O)NC(=O)c1cc(-n2c(=O)cc(C(F)(F)F)n(C)c2=O)c(F)cc1Cl [Saflufenacil]
pest or weed control at 0.0125 ppm (Ambrosia artemisiifolia, 144 h, applied alone, amount of active ingredient 0.0125 ppm): 60%

CCC/C(=N\OCC)C1=C(O)CC(CC(C)SCC)CC1=O (stereo not drawn) [Sethoxydim]
pest or weed control at 0.8 ppm (Ambrosia artemisiifolia, 144 h, read-out: Herbicidal effect (%), compound applied alone, amount of active ingredient 0.8 ppm): 0%

CCNc1nc(Cl)nc(NCC)n1 [Simazine]
pest or weed control at 50 ppm [4]: 30%

Cc1nn(-c2cc(NS(C)(=O)=O)c(Cl)cc2Cl)c(=O)n1C(F)F [Sulfentrazone]
pest or weed control at 0.012 ppm [11]: 0%

CNC(=O)N(C)c1nnc(C(C)(C)C)s1 [Tebuthiuron]
pest or weed control at 50 ppm (Ambrosia artemisiifolia, 144 h, read-out: Herbicidal effect (%), compound applied alone, amount of active ingredient 50 ppm): 20%

CC/C(=N\OC/C=C/Cl)C1=C(O)CC(C2CCOCC2)CC1=O (stereo not drawn) [Tepraloxydim]
pest or weed control at 3.1 ppm (Ambrosia artemisiifolia, 144 h, read-out: Herbicidal effect (%), compound applied alone, amount of active ingredient 3.1 ppm): 10%

CCNc1nc(Cl)nc(NC(C)(C)C)n1 [Terbuthylazine]
pest or weed control at 50 ppm [4]: 0%

CN1C[C@H](c2cccc(C(F)(F)F)c2)[C@@H](C(=O)Nc2ccccc2F)C1=O [Tetflupyrolimet]
Herbicidal effect (%) (compound applied alone, amount of active ingredient 3.1 ppm): 70%

COC(=O)c1csc(C)c1S(=O)(=O)NC(=O)n1nc(OC)n(C)c1=O [Thiencarbazone-methyl]
Herbicidal effect (%) [2]: 30%

Cc1c(C(=O)c2cnn(C)c2O)ccc(S(C)(=O)=O)c1C1=NOCC1 [Topramezone]
Herbicidal effect (%) [12]: 40%

CC(C)N(C(=O)SCC(Cl)=C(Cl)Cl)C(C)C [Tri-allate]
pest or weed control at 12.5 ppm [10]: 20%
